Reference: US9199979B2, “Thiazolylphenyl-benzenesulfonamido derivatives as kinase inhibitors” (NERVIANO MEDICAL SCIENCES S.R.L., priority 2011, dated 2015)

Key:
Assay type in all cases: cell-based
[1] = test system: human melanoma cells Mewo (with wild-type B-Raf); test: In vitro cell proliferation assay, Mewo; conditions: 72 h treatment, cellular ATP readout
Protocol: (§1) Exponentially growing human melanoma cells A375 (with a mutated B-Raf) and human melanoma cells Mewo (with wild-type B-Raf) were seeded and incubated at 37° C. in a humidified 5% CO2 atmosphere. After 24 h, scalar doses of the compound were added to the medium and cells incubated for 72 h. At the end of treatment, cells were washed and counted. Cell number was determined by a cellular adenosine triphosphate monitoring system. Cell proliferation was compared to control cells and the concentration inhibiting cell growth by 50% was calculated.

[2] = test system: human melanoma cells A375 (with a mutated B-Raf); test: In vitro cell proliferation assay, A375; conditions: A-375, 72 h treatment, cellular ATP readout
Protocol: as §1

[3] = test system: p-MAPK (T202/Y204) in A375 human melanoma cells, having a mutated B-Raf; test: p-MAPK (T202/Y204) ArrayScan assay; conditions: A-375, 1.5 or 2 h treatment, p-MAPK staining, read-out: Array Scan A375 IC50
Protocol: A375 human melanoma cells, having a mutated B-Raf, were seeded in 384-well poly-lysine coated plates (Matrix) at a density of 1000 cells/well with appropriate medium supplemented with 10% FCS and incubated for 16-24 h. Cells were treated for 1.5 or 2 h with increasing doses of compounds (starting dose 10 μM, dilution factor 2.5). At the end of the treatment cells were fixed with p-formaldehyde 3.7% for 15-30 min, then washed twice with D-PBS (80 μL/well) and permeabilized with D-PBS containing 0.1% Triton X-100 and 1% BSA (Sigma-Aldrich) for 15 min at room temperature (staining solution). Anti-phospho-MAPK (T202/Y204) monoclonal antibody E10 (Cell Signaling, cat. #9106) diluted 1:100 was added in staining solution and incubated for 1 h at 37° C. After removal of the primary antibody solution, the anti-mouse Cy™ 2-conjugated (Green) secondary antibody (Amersham) diluted 1:500 in staining solution containing 2 μg/mL DAPI was added. The plate was incubated for 1 h at 37° C., washed twice and then read with Cellomics' ArrayScan VTI (4 fields/well, CytoNucTrans algorithm).
The parameter “MEAN_RingAvgIntenCh2”, which measures the mean cytoplasmatic fluorescence intensity associated to p-MAPK staining, is reported as the final result.

| Structure (SMILES) | IC50 [1] [µM] | IC50 [2] [µM] | IC50 [3] [µM] |
| --- | --- | --- | --- |
| CC(=O)Nc1cc(-c2sc(C3CCOCC3)nc2-c2cccc(NS(=O)(=O)c3cc(F)ccc3F)c2F)ccn1 [cmpd. 35, N-{4-[4-(3-{[(2,5-difluorophenyl)sulfonyl]amino}-2-fluorophenyl)-2-(tetrahydro-2H-pyran-4-yl)-1,3-thiazol-5-yl]pyridin-2-yl}acetamide] | > 10 | 0.0006 |  |
| O=S(=O)(Nc1ccc(F)c(-c2nc(N3CCC(F)(F)CC3)sc2-c2ccncc2)c1F)c1cc(F)ccc1F [cmpd. 14, N-{3-[2-(4,4-difluoropiperidin-1-yl)-5-(pyridin-4-yl)-1,3-thiazol-4-yl]-2,4-difluorophenyl}-2,5-difluorobenzenesulfonamide] | > 10 | 0.066 | 0.004 |
| CN1CCC(c2nc(-c3cccc(NS(=O)(=O)c4cc(F)ccc4F)c3F)c(-c3ccnc(N)c3)s2)CC1 [cmpd. 39, N-{3-[5-(2-aminopyridin-4-yl)-2-(1-methylpiperidin-4-yl)-1,3-thiazol-4-yl]-2-fluorophenyl}-2,5-difluorobenzenesulfonamide] | > 10 | 0.027 |  |
| CN1CCC(c2nc(-c3cccc(NS(=O)(=O)c4cc(F)ccc4F)c3F)c(-c3ccncc3)s2)CC1 [cmpd. 19, 2,5-difluoro-N-{2-fluoro-3-[2-(1-methylpiperidin-4-yl)-5-(pyridin-4-yl)-1,3-thiazol-4-yl]phenyl}benzenesulfonamide] | > 10 | 0.04 | 0.002 |
| CCN(CC)c1nc(-c2c(F)ccc(NS(=O)(=O)c3cc(F)ccc3F)c2F)c(-c2ccncc2)s1 [cmpd. 3, N-{3-[2-(diethylamino)-5-(pyridin-4-yl)-1,3-thiazol-4-yl]-2,4-difluorophenyl}-2,5-difluorobenzenesulfonamide] | > 10 | 0.166 | 0.001 |
| COC(=O)N[C@@H](C)CNc1cc(-c2sc(C3CCOCC3)nc2-c2cccc(NS(=O)(=O)c3cc(F)ccc3F)c2F)ccn1 [cmpd. 41, Methyl [(2S)-1-({4-[4-(3-{[(2,5-difluorophenyl)sulfonyl]amino}-2-fluorophenyl)-2-(tetrahydro-2H-pyran-4-yl)-1,3-thiazol-5-yl]pyridin-2-yl}amino)propan-2-yl]carbamate] | > 10 | 0.008 |  |
| CC(=O)Nc1cc(-c2sc(C3CCN(C4CC4)CC3)nc2-c2cccc(NS(=O)(=O)c3cc(F)ccc3F)c2F)ccn1 [cmpd. 30, N-{4-[2-(1-cyclopropylpiperidin-4-yl)-4-(3-{[(2,5-difluorophenyl)sulfonyl]amino}-2-fluorophenyl)-1,3-thiazol-5-yl]pyridin-2-yl}acetamide] | > 10 | 0.003 |  |
| CNc1cc(-c2sc(C3CCN(C4CC4)CC3)nc2-c2cccc(NS(=O)(=O)c3cc(F)ccc3F)c2F)ccn1 [cmpd. 37, N-(3-{2-(1-cyclopropylpiperidin-4-yl)-5-[2-(methylamino)pyridin-4-yl]-1,3-thiazol-4-yl}-2-fluorophenyl)-2,5-difluorobenzenesulfonamide] | > 10 | 0.092 |  |
| CNc1cc(-c2sc(C3CCN(C)CC3)nc2-c2cccc(NS(=O)(=O)c3cc(F)ccc3F)c2F)ccn1 [cmpd. 38, 2,5-difluoro-N-(2-fluoro-3-{5-[2-(methylamino)pyridin-4-yl]-2-(1-methylpiperidin-4-yl)-1,3-thiazol-4-yl}phenyl)benzenesulfonamide] | > 10 | 0.047 |  |
| CNc1cc(-c2sc(C3CCOCC3)nc2-c2cccc(NS(=O)(=O)c3cc(F)ccc3F)c2F)ccn1 [cmpd. 25, 2,5-difluoro-N-(2-fluoro-3-{5-[2-(methylamino)pyridin-4-yl]-2-(tetrahydro-2H-pyran-4-yl)-1,3-thiazol-4-yl}phenyl)benzenesulfonamide] | > 10 | 0.032 |  |

Second part, the compound after the results:

| IC50 [1] [µM] | IC50 [2] [µM] | IC50 [3] [µM] | Structure (SMILES) |
| --- | --- | --- | --- |
| > 10 | 0.078 | 0.002 | O=S(=O)(Nc1cccc(-c2nc(C3CCOCC3)sc2-c2ccncc2)c1F)c1cc(F)ccc1F [cmpd. 20, 2,5-difluoro-N-{2-fluoro-3-[5-(pyridin-4-yl)-2-(tetrahydro-2H-pyran-4-yl)-1,3-thiazol-4-yl]phenyl}benzenesulfonamide] |
| > 10 | 0.023 |  | O=S(=O)(Nc1cccc(-c2nc(C3CCN(C4CC4)CC3)sc2-c2ccncc2)c1F)c1cc(F)ccc1F [cmpd. 21, N-{3-[2-(1-cyclopropylpiperidin-4-yl)-5-(pyridin-4-yl)-1,3-thiazol-4-yl]-2-fluorophenyl}-2,5-difluorobenzenesulfonamide] |
| > 10 | 0.04 |  | CC(=O)Nc1cc(-c2sc(C3CCNCC3)nc2-c2cccc(NS(=O)(=O)c3cc(F)ccc3F)c2F)ccn1 [cmpd. 44, N-{4-[4-(3-{[(2,5-difluorophenyl)sulfonyl]amino}-2-fluorophenyl)-2-(piperidin-4-yl)-1,3-thiazol-5-yl]pyridin-2-yl}acetamide] |
| > 10 | 0.012 |  | CC(C)(C)c1nc(-c2cccc(NS(=O)(=O)c3cc(F)ccc3F)c2F)c(-c2ccncc2)s1 [cmpd. 43, N-{3-[2-tert-butyl-5-(pyridin-4-yl)-1,3-thiazol-4-yl]-2-fluorophenyl}-2,5-difluorobenzenesulfonamide] |
| > 10 | 0.027 |  | Nc1cc(-c2sc(C3CCN(C4CC4)CC3)nc2-c2cccc(NS(=O)(=O)c3cc(F)ccc3F)c2F)ccn1 [cmpd. 22, N-{3-[5-(2-aminopyridin-4-yl)-2-(1-cyclopropylpiperidin-4-yl)-1,3-thiazol-4-yl]-2-fluorophenyl}-2,5-difluorobenzenesulfonamide] |
| > 10 | 0.0006 |  | CC(=O)Nc1cc(-c2sc(C(C)(C)C)nc2-c2cccc(NS(=O)(=O)c3cc(F)ccc3F)c2F)ccn1 [cmpd. 42, N-{4-[2-tert-butyl-4-(3-{[(2,5-difluorophenyl)sulfonyl]amino}-2-fluorophenyl)-1,3-thiazol-5-yl]pyridin-2-yl}acetamide] |
| > 10 | 0.015 |  | Nc1cc(-c2sc(C3CCOCC3)nc2-c2cccc(NS(=O)(=O)c3cc(F)ccc3F)c2F)ccn1 [cmpd. 24, N-{3-[5-(2-aminopyridin-4-yl)-2-(tetrahydro-2H-pyran-4-yl)-1,3-thiazol-4-yl]-2-fluorophenyl}-2,5-difluorobenzenesulfonamide] |
| > 10 | 0.006 |  | CC(=O)Nc1cc(-c2sc(C3CCN(C)CC3)nc2-c2cccc(NS(=O)(=O)c3cc(F)ccc3F)c2F)ccn1 [cmpd. 23, N-{4-[4-(3-{[(2,5-difluorophenyl)sulfonyl]amino}-2-fluorophenyl)-2-(1-methylpiperidin-4-yl)-1,3-thiazol-5-yl]pyridin-2-yl}acetamide] |
| > 10 | 0.127 | 0.002 | O=S(=O)(Nc1cccc(-c2nc(N3CCC(F)(F)CC3)sc2-c2ccncc2)c1F)c1cc(F)ccc1F [cmpd. 18, N-{3-[2-(4,4-difluoropiperidin-1-yl)-5-(pyridin-4-yl)-1,3-thiazol-4-yl]-2-fluorophenyl}-2,5-difluorobenzenesulfonamide] |
| > 10 | 0.069 |  | CC(=O)NCCNc1cc(-c2sc(C3CCOCC3)nc2-c2cccc(NS(=O)(=O)c3cc(F)ccc3F)c2F)ccn1 [cmpd. 36, N-[2-({4-[4-(3-{[(2,5-difluorophenyl)sulfonyl]amino}-2-fluorophenyl)-2-(tetrahydro-2H-pyran-4-yl)-1,3-thiazol-5-yl]pyridin-2-yl}amino)ethyl]acetamide] |
